# Laboratory results reported in US11154621B2, “Liponucleotide-based therapy for COPD” (priority 2017, dated 2021).
# Tests used:
# [1] = tested on: elastase-induced emphysema in C57BL/6 mice; assay: Mouse model of emphysema (intratracheal elastase administration); assay type: in vivo; conditions: daily i.p. days 1-13, day 14
# Procedure: To experimentally determine the efficacy of the liponucleotides (lipoNTs) CDP-choline (CDP-CHO), CDP-ethanolamine (CDP-ETH), and CDP-diacylglycerol 16:0/16:0 (CDP-DAG) as therapeutics in a mouse model of emphysema (intratracheal elastase administration) (Yoshida S, et al. Am J Physiol Lung Cell Mol Physiol 2012 303:L852-L860).
# (§1) To induce emphysema, porcine pancreatic elastase was administered intratracheally to adult female C57BL/6 mice (n=5-10 per group) by per os intubation under light anesthesia at day 0 and day 7. LipoNTs were administered daily by the intraperitoneal route in 50 μl sterile saline at the timepoints indicated for each group.
# Analysis of elastase and lipoNT effects: Data were collected 14 days after first elastase administration in terminal experiments.
# 1. Static lung compliance (CST) was measured in live mice by the forced-oscillation method using the SciReq flexiVent computer-controlled mechanical ventilator, as in previous studies (Traylor Z P, Yet al. Am J Physiol Lung Cell Mol Physiol 2010 298:L437-L445).
# 2. Following flexiVent analysis, bronchoalveolar lavage was performed on all mice using 0.8 ml PBS. BALF total and differential cell counts (trypan-blue stained live cells and Giemsa-stained cytospins, respectively) were performed on cell pellets to assess inflammatory cell infiltrates. BALF alveolar macrophage (AM) counts were determined.
# [2] = tested on: BLEO-induced pulmonary fibrosis in C57BL/6 mice; assay: Mouse model of pulmonary fibrosis (bleomycin exposure); assay type: in vivo; conditions: for Mortality: CDP-CHO, CDP-ETH 5 mg/kg, CDP-DAG 0.5 mg/kg
# Procedure: To experimentally determine the efficacy of the liponucleotides (lipoNTs) CDP-choline (CDP-CHO), CDP-ethanolamine (CDP-ETH), and CDP-diacylglycerol 16:0/16:0 (CDP-DAG) as therapeutics in a mouse model of pulmonary fibrosis (bleomycin exposure) (Chung S, et al. Oncotarget 2016 7:17532-17546).
# as §1, with “bleomycin (BLEO)” for “porcine pancreatic elastase”, “light ketamine/xylazine” for “light”, “0.” for “0 and day 7.”
# Data were collected 21 days after first exposure to BLEO in terminal experiments.
# 2. Carotid arterial O2 saturation (SaO2) and heart rate were measured in conscious individually-identified animals by pulse oximetry using the MouseOx system.
# 3. Static lung compliance (CST) was measured in live mice by the forced-oscillation method using the SciReq flexiVent computer-controlled mechanical ventilator, as in previous studies (Traylor Z P, et al. Am J Physiol Lung Cell Mol Physiol 2010 298:L437-L445).
# 4. Following flexiVent analysis, lungs were removed and flash frozen in liquid N2 for analysis of collagen content. Soluble collagen was measured by a standard Sircol assay.
# [3] = tested on: influenza A/WSN/33 (H1N1)-infected mice; assay: Effect of influenza infection and i.p. liponucleotide treatment on lung function; assay type: in vivo, mouse
# [4] = infected mice, day 6, i.p. daily from 1-5 days post-infection, CDP-CHO, CDP-ETH 100 μg/mouse, CDP-DAG 10 μg/mouse
Molecule,"static lung compliance (CST) ([1]; CDP-CHO, CDP-ETH 5 mg/kg, CDP-DAG 0.5 mg/kg)",elastase-induced increase in BALF alveolar macrophages (AMs) [1],"Mortality ([2]; BLEO, daily i.p. D1-20, day 21)","Mortality ([2]; BLEO, daily i.p. D1-20, day 21, listed as CHO)","CST (ml/cmH2O ×10) ([2]; BLEO, daily i.p. D1-20, day 21)","SaO2 (%) ([2]; BLEO, daily i.p. D1-20, day 21)","Collagen ([2]; BLEO, daily i.p. D1-20, lung soluble collagen, day 21)",other beneficial effects in this model of pulmonary fibrosis ([2]; daily from 1-20 days after BLEO),"PaO2 equivalent ([3]; equivalent of SaO2 increase, from approximately 65 mmHg)","O2 carrying capacity of blood (CaO2) ([3]; equivalent of SaO2 increase, from approximately 88%)","SaO2 after CDP-choline treatment ([3]; increased from approximately 85%, infected mice)",effects of single dose treatment late in infection compared with daily treatment ([3]; infected mice),"SaO2 (%) [3, 4]","HR (bpm) [3, 4]","WET:DRY [3, 4]"
"C[N+](C)(C)CCOP(=O)(O)OP(=O)(O)OC[C@H]1O[C@@H](n2ccc(N)nc2=O)C(O)C1O (stereo partly shown) [CDP-CHO, CDP-choline]",decreases CST,enhanced,significantly attenuated BLEO-induced mortality,20%,0.38 ± 0.02 ml/cmH2O ×10,97.0 ± 1.0%,0.79 ± 0.08 mg/mL,no other beneficial effects,approximately 85 mmHg,approximately 97 % of normal,approximately 96%,as good as those of daily treatment,93.5 ± 1.0 %,–,–
CDP-diacylglycerol [CDP-DAG],–,–,–,–,–,–,–,–,–,–,–,–,95.2 ± 1.6 %,600 ± 10 bpm,5.8 ± 0.1
